The values that follow come from patent US11440903B2, “Salt form and crystal form of compound as FGFR4 inhibitor and preparation method thereof” (GUANGDONG ZHONGSHENG PHARMACEUTICAL CO., LTD, priority 2017, dated 2022).

Holding throughout (assay type): physicochemical
Series [1] is described as follows: Stability of the crystal form on stirring as suspension in solvent (40° C., 2 days). How it is done: 30 mg of the compound represented by formula (I) was weighed and added into a glass flask, 400 μL acetonitrile-water (1:1) was added to form a suspension. A sample of the suspension was placed on a magnetic stirrer (40° C.) for a dark stirring experiment. The sample of the suspension was centrifuged after stirring at 40° C. for 2 days, and then the residual sample was dried in a vacuum drying oven (30° C.) overnight to give a crystal form A of the compound represented by formula (I). The XRPD pattern of the crystal form A of the compound represented by formula (I) is shown in FIG. 1, the DSC pattern is shown in FIG. 2, and the TGA pattern is shown in FIG. 3.
30 mg of the compound represented by formula (I) was weighed and added into a glass flask, and 400 μL ethyl acetate was added to form a suspension. A sample of the suspension was placed on a magnetic stirrer (40° C.) for dark stirring experiment. The sample of the suspension was centrifuged after stirring at 40° C. for 2 days, and then the residual sample was dried in a vacuum drying oven (30° C.) overnight. The crystal form was detected by XRPD to give a crystal form A of the compound represented by formula (I).
30 mg of the compound represented by formula (I) was weighed and added into a glass flask, and 400 μL methanol was added to form a suspension. A sample of the suspension was placed on a magnetic stirrer (40° C.) for dark stirring experiment. The sample of the suspension was centrifuged after stirring at 40° C. for 2 days, and then the residual sample was dried in a vacuum drying oven (30° C.) overnight to give a crystal form B of the compound represented by formula (I). The XRPD pattern of the crystal form B of the compound represented by formula (I) is shown in FIG. 4, the DSC pattern is shown in FIG. 5, and the TGA pattern is shown in FIG. 6.
50 mg of the compound represented by formula (I) was weighed and added into a 1.5 mL liquid vial, and 200 μL methanol was added thereto, the obtained mixture was homogeneously mixed under ultrasound. The dissolved sample was quickly centrifuged, and the supernatant was placed in a centrifuge tube, the mouth of the tube was packed with a pierced aluminum foil, and then the tube was placed in a fume cupboard for volatilization; the sample of the suspension was placed on a magnetic stirring heater (40° C.) for stirring (in dark), and quickly centrifuged after 2 days. The resultant solid was collected and dried at 30° C. in a vacuum drying oven overnight to give the crystal form C of the compound represented by formula (I). The XRPD pattern of the crystal form C of the compound represented by formula (I) is shown in FIG. 7, the DSC pattern is shown in FIG. 8, and the TGA pattern is shown in FIG. 9.
50 mg of the compound represented by formula (I) was weighed and added into a 1.5 mL liquid vial, and 200 μL ethanol was added thereto, and the obtained mixture was homogeneously mixed under ultrasound. The dissolved sample was quickly centrifuged, the supernatant was placed into a centrifuge tube, and the mouth of the tube was packed with a pierced aluminum foil, and placed in a fume cupboard for volatilization; the sample of the suspension was placed on a magnetic stirring heater (40° C.) for stirring (in dark), and quickly centrifuged after 2 days. The solid obtained as above was collected and dried at 30° C. in a vacuum drying oven overnight to give a crystal form D of the compound represented by formula (I). The XRPD pattern of the crystal form D of the compound represented by formula (I) is shown in FIG. 10, the DSC pattern is shown in FIG. 11, and the TGA pattern is shown in FIG. 12.
35 mg of the compound represented by formula (II) was weighed and added into a 1.5 mL liquid vial, and 400 μL methanol was added thereto, and the obtained mixture was homogeneously mixed under ultrasound. […]

A short description of series [2]: Solid stability test of the crystal forms (influence factors and acceleration tests; appearance, XRPD, HPLC content and impurities).
Excerpt: A sample of the crystal form A was placed on the bottom of a glass sample bottle, and spread to a thin layer. The sample stored under high temperature, high humidity, and acceleration conditions was placed in a bottle of which the mouth was packed with a pierced aluminum foil to ensure the sample to be sufficiently exposed to ambient air; the sample stored under light radiation conditions was placed at room temperature in a standing bottle of which the mouth was open, the sample was exposed to a light resource, and sampled for detection after being radiated by sufficient energy. Samples were taken and analyzed at various time points, and the test results were compared with the initial test results of 0 day, the inspection items included appearance, content and impurities, and the test results are shown in Table 9.
A sample of the crystal form B (10 mg) was placed on the bottom of a glass sample bottle, and spread to a thin layer. The sample stored under high temperature, high humidity, and acceleration conditions were placed in a bottle of which the mouth was packed with a pierced aluminum foil to ensure the sample to be sufficiently exposed to ambient air; the sample stored under light radiation conditions was placed at room temperature in a standing bottle of which the mouth was open, the sample was exposed to a light resource, and sampled for detection after being radiated by sufficient energy, the control sample stored in dark (open, the whole sample bottle was sealed with aluminum foil to keep the content in dark) and the sample stored under light radiation conditions were placed together to exclude environmental influence on the samples. Samples were taken and analyzed at various time points, and the test results were compared with the initial test results of 0 day, the inspection items included appearance, crystal form, content and impurities, the test results are shown in Table 10.
(§1) A sample of the crystal form C was taken and placed on the bottom of a glass sample bottle, and spread to a thin layer. The sample stored under high temperature, high humidity, and acceleration conditions was placed in a bottle of which the mouth was packed with a pierced aluminum foil to ensure the sample to be sufficiently exposed to ambient air; the sample stored under light radiation conditions was placed at room temperature in a standing bottle of which the mouth was open, the sample was exposed to a light resource, and sampled for detection after being radiated by sufficient energy. Samples were taken and analyzed at various time points, and the test results were compared with the initial test results of 0 day.
as §1, with “D” for “C”
A sample of the crystal form E (10 mg) was taken and placed on the bottom of a glass sample bottle, and spread to a thin layer. […]

Series [3] is described as follows: Solubility test in biological media (FaSSIF, FeSSIF, SGF) and water, 37° C. To be noted: SGF and fasting or satiety state simulated intestinal fluid. On the procedure:
Step 1: Preparation of Control Solutions (0.2 mg/mL, calculated by free base)
2 mg the crystal form B of the compound represented by formula (I) (or 2.4 mg the crystal form E of the compound represented by formula (II)) as a control was precisely weighed and placed into a 40 mL glass vial, and a diluent (10 mL) was precisely added. The reaction solution was subjected to ultrasonic treatment for 20 min to sufficiently dissolve, then cooled to room temperature and shaked well. Two control solutions (STD #1, STD #2) were formulated in accordance with this method.
Step 2: Preparation of Linear Solutions
The control solution STD #1 of the crystal form B of the compound represented by formula (I) was 1×, 10×, 100×, 1000× and 2000× (free base LOQ) diluted, and designated as the linear solutions L1, L2, L3, L4 and L5; the control solution STD #1 of the crystal form E of the compound represented by formula (II) was 1×, 10×, 100× and 1000× (methanesulfonate LOQ) diluted, and designated as the linear solutions L1, L2, L3, L4.
Step 3: Solubility Test of the crystal form B of the compound represented by formula (I), the crystal form G of the compound represented by formula (III) and the crystal form E of the compound represented by formula (II) in biological media and water
4 samples (about 4 mg) of each of the crystal form B of the compound represented by formula (I), the crystal form E of the compound represented by formula (II), and the crystal form G of the compound represented by formula (III) were added into 12 glass vials (4 mL), respectively, and then 2 mL different biological media (FaSSIF, FeSSIF, SGF) and water were added into each compound respectively, then mixed homogeneously to form a suspension. The suspension was detected for its initial pH value. A magnet was added into the suspension, and placed on a magnetic stirring heater for stirring (at a temperature of 37° C., in dark). After stirring for 24 h, a sample was taken. The taken sample was quickly centrifuged, and the residual solid was detected by XRPD. The supernatant was detected for its pH value and diluted with a diluent into appropriate multiple, then measured with HPLC for its concentration.
FaSSIF: 1. 0.042 g sodium hydroxide, 0.3438 g sodium dihydrogen phosphate and 0.6186 g sodium chloride were weighed, added into 90 mL purified water, and homogeneously mixed, then, the mixture was adjusted with 1 N hydrochloric acid or 1 N sodium hydroxide to pH=6.5, and diluted into a constant volume of 100 mL with purified water; 2. 50 mL of the buffer described above was taken, and 0.224 g commercially available powder (Biorelevant.com) of FaSSIF/FeSSIF/FaSSGF was added thereto, the mixture was stirred to dissolve, and diluted with purified water to a constant volume of 100 mL.
FeSSIF: 1. 0.404 g sodium hydroxide, 0.865 g glacial acetic acid, and 1.1874 g sodium chloride were weighed, added into 90 mL purified water, and homogeneously mixed, then, the mixture was adjusted with 1 N hydrochloric acid or 1 N sodium hydroxide to pH=5.0, and diluted with purified water to a constant volume of 100 mL, 2. 50 mL of the buffer described above was taken, and 1.12 g commercially available powder (Biorelevant.com) of FaSSIF/FeSSIF/FaSSGF was added thereto, the mixture was stirred to dissolve, and diluted with purified water to a constant volume of 100 mL.
FaSSGF (SGF): 1. 0.2 g sodium chloride was weighed, added into 90 mL purified water, and mixed homogeneously, the mixture was adjusted with 1 N hydrochloric acid to pH=1.8, and diluted with purified water to a constant volume of 100 mL, and stood at room temperature.

The mark [4] stands for this setting: Acceleration test (40° C./relative humidity of 75%, open), 10 days.
[5] abbreviates: High humidity (room temperature/relative humidity of 92.5%, open), 10 days.
Where [6] appears, read: High temperature (60° C., open), 10 days.
Setting [7] is: Light radiation (total illumination: 1.2 × 10^6 Lux·hr), 10 days.
[8] abbreviates: conclusion of influence factors and acceleration tests.

SMILES strings stand for the structures.

With `C=CC(=O)N[C@H]1COC[C@H]1Nc1ncc(/C=C(\F)c2c(Cl)c(OC)cc(OC)c2Cl)cn1` [Crystal Form A], the “stability in the acetonitrile-water solution” value in series [1] (stirring in acetonitrile-water (1:1) at 40° C. for 2 days) is on record as “substantially high stability”. In series [1] (stirring in ethyl acetate at 40° C. for 2 days), the “stability in the ethyl acetate solution” value is given as “substantially high stability”. The Appearance entry in series [2] (0 day (initial)) was “Off-white”; in series [2] (Acceleration test (40° C./relative humidity of 75%, open), 5 days), “Off-white”; in series [2] (setting [4]), “Off-white”; in series [2] (High humidity (room temperature/relative humidity of 92.5%, open), 5 days) it was “Off-white”; in series [2] (setting [5]) it was “Off-white”; in series [2] (High temperature (60° C., open), 5 days) it was “Off-white”. Further, the Appearance result is on record as “Off-white” in series [2] (setting [6]); “Off-white” in series [2] (Light radiation (total illumination: 1.2 × 10^6 Lux·hr), 5 days); “Off-white” in series [2] (setting [7]). Moreover, the “Content (%)” value in series [2] (0 day (initial)) turned out to be 99.11%; in series [2] (setting [4]), 98.98%; in series [2] (setting [5]) it was 98.85%; in series [2] (setting [6]), 99.06%; in series [2] (setting [7]), 99.13%. Moreover, the “Total Impurities (%)” value in series [2] (0 day (initial)) is recorded as 1.12%; in series [2] (setting [4]) it was 1.18%; in series [2] (setting [5]), 1.22%; in series [2] (setting [6]) it was 1.18%; in series [2] (setting [7]), 1.10%. For the same molecule, the “photostability (stability under light radiation), conclusion in words” value in series [2] (setting [8]) is listed as “relatively good”. In addition, the “stability under acceleration conditions, conclusion in words” value in series [2] (setting [8]) is recorded as “relatively good”. In addition, in series [2] (setting [8]), the “stability under high humidity conditions, conclusion in words” value is “slightly less stability”. The “thermal stability (high temperature), conclusion in words” value in series [2] (setting [8]) is recorded as “relatively good”.

As to `C=CC(=O)N[C@H]1COC[C@H]1Nc1ncc(/C=C(\F)c2c(Cl)c(OC)cc(OC)c2Cl)cn1.CS(=O)(=O)O` [compound represented by formula (II)], the “solubility in simulated gastric fluid (SGF) and simulated intestinal fluid (FaSSIF), in words” value in series [3] is listed as “relatively good solubility”.

For `C=CC(=O)N[C@H]1COC[C@H]1Nc1ncc(/C=C(\F)c2c(Cl)c(OC)cc(OC)c2Cl)cn1.O=S(=O)(O)O` [compound represented by formula (III)], the “solubility in simulated gastric fluid (SGF) and simulated intestinal fluid (FaSSIF), in words” value in series [3] was “relatively good solubility”.
